Activity, EC50 and T/C data for four compounds are collected here from ChEMBL document CHEMBL1151627, “Antineoplastic agents, 99. Amaryllis belladonna” (1984).

In brackets after ≈: the same amount, converted by molar mass. Activity calls are given as the source filed them. No cut-off for these calls is given here.

Test [1] relates to P388. The test is described as follows: In vivo antitumor activity against mouse P388 cells at 5 to 200 mg/kg. It is filed as functional, organism-based.
Test [2] concerns P388. The test is described as follows: Cytotoxicity against mouse P388 cells. In kind it is functional. The following applies: read-out: ED50 (the source's name).
For test [3], the system named is P388. The experiment in a line: In vivo antitumor activity against mouse P388 cells at 1.25 to 10 mg/kg. In kind it is functional, organism-based.
In test [4] the test system is P388. The test is described as follows: In vivo antitumor activity against mouse P388 cells at 20 mg/kg. In kind it is functional.
In test [5] the test system is P388. The experiment in a line: In vivo antitumor activity against mouse P388 cells at 10 mg/kg. In kind it is functional.
Test [6] has as its system P388. The experiment in a line: In vivo antitumor activity against mouse P388 cells at 75 mg/kg. In kind it is functional.

With `CC(=O)O[C@@H]1CC=C2CCN3Cc4cc5c(cc4[C@H]1[C@@H]23)OCO5` [ACETYLCARANINE], the outcome in the test with P388 [1] was inactive. Also, the EC50 in the test on P388 [2] was 0.23 µg/mL (≈ 0.734 µM). Consider `COc1c2c(cc3c1OCO3)[C@]13C=C[C@H](OC)C[C@H]1N(C2)C[C@@H]3O` [AMBELLINE], for which the result in the test with P388 [3] was inactive. The EC50 in the test with P388 [2] turned out to be 1.6 µg/mL (≈ 4.83 µM). As a reminder, the T/C is the result in the treated group divided by that in the control group, in per cent. For `[Cl-].c1cc2c3c(c1)c1cc4c(cc1c[n+]3CC2)OCO4` [ANHYDROLYCORINIUM CHLORIDE], the T/C was 169% in the test with P388 [4] and 164% in the test on P388 [5]. `O[C@H]1[C@H]2c3cc4c(cc3CN3CCC(=C[C@@H]1O)[C@H]23)OCO4` [LYCORINE] registered a T/C in the test with P388 [6] of 135%.
